# Reference: patent US20110028561A1, “PROTECTION OF NEURAL RETINA BY REDUCTION OF ROD METABOLISM” (CHILDREN'S MEDICAL CENTER CORPORATION, priority 2008, published 2011)
# “Also recorded” adds a separate entry of the source.
# Columns and labels:
# [1] = tested on: rats with oxygen-induced retinopathy (OIR); assay: Electroretinography in rats with oxygen-induced retinopathy (Example 1); type: in vivo, rat (Sprague-Dawley)
# Excerpt: Rats with oxygen-induced retinopathy (OIR) are a common model of human retinopathy of prematurity (ROP). Both OIR and ROP are characterized by abnormal retinal vasculature and by lasting dysfunction of the neural retina. Recent findings in OIR rats imply a causal role for the rods in the ROP disease process. However, experimental manipulation of rod function is necessary to establish this role conclusively. The retinoid composition N-Retinylacetamide (all trans), of chemical composition C22H33NO “the drug” was administered in the rat OIR model of ROP.
# OIR was induced in four litters of Sprague-Dawley pups (N=24) by exposure to alternating periods of 50% and 10% oxygen from the day of birth (P0) to P14. The light cycle was 12 hr light (10-30 lux) and 12 hr dark; the light-to-dark transition coincided with each oxygen alternation. For 15 days beginning P7, within one hour of this transition, the first and fourth litters were administered 6 mg/kg drug IP; the second and third litters received only vehicle. At P20-22, when marked retinal vascular abnormality is generally observed, electroretinograms were recorded and receptor and post-receptor function evaluated. Treatment effects were evaluated by ANOVA.
# visual cycle = conditions: mouse, dose 6 mg/kg; cited from earlier work
# [2] = tested on: rats with oxygen-induced retinopathy (OIR); assay: Arteriolar tortuosity from fundus images analysed with RISA in OIR rats (Example 2); type: in vivo, rat (Sprague-Dawley)
# Description: (§1) Retinopathy was induced in Sprague-Dawley pups (N=46) by exposing them to alternating 24 hour periods of 50±1% and 10±1% oxygen from the day of birth to postnatal day (P) 14 as shown in FIG. 1. The light cycle was controlled at 12 hours 10-30 lux and 12 hours dark, except during test days when constant darkness was maintained. The light-to-dark transition was timed to coincide with each oxygen alternation. For two weeks, beginning on P7, during this transition, the first and fourth litters were injected intraperitoneally with 6 mg*kg-1 Ret-NH2; the second and third litters were administered an equivalent volume of vehicle (20% dimethyl sulfoxide, DMSO) alone. The injection schedule was designed to continue over the age range that begins with the onset of rapid increase in the rhodopsin content of the retina and lasts until rhodopsin content exceeds 50% of its adult amount (A. B. Fulton, and B. N. Baker, Invest Ophthalmol Vis Sci (1984) 25:647). […] The rats were assessed following a longitudinal design with tests at P20-22, P30-32, and P60-62. These dates were selected because they capture the height of vascular abnormality, a period of marked recovery, and an adult age, respectively (J. D. Akula, et al., Invest Ophthalmol Vis Sci (2007) 48:4351). At each test age, we studied the function of the neural retina and the morphology of the retinal vasculature using noninvasive techniques.
# To assess whether VCM treatment affected the retinal vasculature, wide-field images of the ocular fundus were obtained that show the major vessels of the retina following each ERG session. […] The arterioles were analyzed with RISA (R. Gelman, M. E. Invest Ophthalmol Vis Sci (2005) 46: 4734) custom image analysis software. In agreement with previous reports (J. D. Akula, Invest Ophthalmol Vis Sci (2007) 48:4351; K. Liu, et al., Invest Ophthalmol Vis Sci (2006) 47:2639), the venules were little affected by the induction of retinopathy. […] For each rat, the mean blood vessel integrated curvature across both eyes (median 10 arterioles) was determined to provide a measure of arteriolar tortuosity, TA (radians*pixel^−1), a measure which agrees well with subjective assessments in human subjects (R. Gelman, M. E. Invest Ophthalmol Vis Sci (2005) 46: 4734). […] To test this, the value of TA at P20 was subtracted from the value of TA at P60 in each rat to determine the change in arteriolar tortuosity during the course of the experiment.
# [3] = tested on: rats with oxygen-induced retinopathy (OIR); assay: ERG of rod and rod-mediated neural function in the dark-adapted retina of OIR rats (Example 2); type: in vivo, rat (Sprague-Dawley); conditions: for magnitude of the rod response (Rmp3): p<0.001, most markedly at P30-32, vs vehicle; for recovery from phototransduction, latency to 50% recovery τ: double-flash paradigm
# Description: as §1
# Shortly (0-2 days) after the final dose, the effects of the drug were assessed on the neural retina by electroretinography (ERG). The timing and intensity of the stimuli, which was designed to assess rod photoreceptor and rod-mediated post-receptor neural function, were under computer control. Two sets of experiments were performed. In the first, rod and rod-mediated neural function in the dark-adapted retina were assessed. In the second, the recovery of the rod photoreceptor from a bright, rhodopsin-bleaching stimulus was assessed. Each set of experiments was performed on approximately half of the subjects from each litter.
# Sample traces were recorded these from a P30-32 VCM-treated rat; the sample records in panels D, E, and G were recorded in the same session. Characteristics of the rod photo-response were estimated from the ERG by fitting the Hood and Birch (D. C. Hood, and D. G. Birch, Vis Neurosci (1992) 8:107) formulation of the Lamb and Pugh (T. D. Lamb, and E. N. Pugh, Jr., J Physiol (1992) 449:719; E. N. Pugh, Jr., and T. D. Lamb, Biochim Biophys Acta (1993) 1141:111) model of the biochemical processes involved in the activation of photo-transduction to the a-wave:
# P3(i,t)=Rmp3·(1−exp(−½·i·S·(t−td)^2))
# In this equation, i is the intensity of the flash (R*) and t is elapsed time (seconds). The free parameters in the model, Rmp3, S, and td, were ensemble fitted using a square error minimization routine. Rmp3 is the amplitude (μV) of the saturated rod response; it is proportional to the magnitude of the dark current and depends upon the number of channels available for closure by light in the ROS (T. D. Lamb, and E. N. Pugh, Jr., J Physiol (1992) 449:719; E. N. Pugh, Jr., and T. D. Lamb, Biochim Biophys Acta (1993) 1141:111). S is a sensitivity (R*-1*sec-2) parameter that is related to the amplification constant, A, which summarizes the kinetics of the series of processes initiated by the photoisomerization of rhodopsin and resulting in closure of the channels in the plasma membrane of the photoreceptor. td is a brief delay (sec). Fitting of the model was restricted to the leading edge of the a-wave.
# Following the study of the activation of phototransduction, deactivation of phototransduction was studied in the same rats using a double-flash paradigm. The time course of the rod response was derived to a green conditioning flash (CF) producing approximately 75 R*. This green flash, while producing an a-wave less than half of the saturated rod response, was nevertheless sufficient to fully suppress the dark current. […]
# [4] = tested on: rats with oxygen-induced retinopathy (OIR); assay: Recovery of the rod dark current from a rhodopsin-bleaching stimulus in OIR rats (Example 2); type: in vivo, rat (Sprague-Dawley); conditions: 30 second bleaching exposure, 6 mg/kg IP, vs vehicle, t50 often extrapolated
# Description: Retinopathy was induced in Sprague-Dawley pups (N=46) by exposing them to alternating 24 hour periods of 50±1% and 10±1% oxygen from the day of birth to postnatal day (P) 14 as shown in FIG. 1. The light cycle was controlled at 12 hours 10-30 lux and 12 hours dark, except during test days when constant darkness was maintained. The light-to-dark transition was timed to coincide with each oxygen alternation. For two weeks, beginning on P7, during this transition, the first and fourth litters were injected intraperitoneally with 6 mg*kg-1 Ret-NH2; the second and third litters were administered an equivalent volume of vehicle (20% dimethyl sulfoxide, DMSO) alone. […] The rats were assessed following a longitudinal design with tests at P20-22, P30-32, and P60-62. […]
# Shortly (0-2 days) after the final dose, the effects of the drug were assessed on the neural retina by electroretinography (ERG). […] In the first, rod and rod-mediated neural function in the dark-adapted retina were assessed. In the second, the recovery of the rod photoreceptor from a bright, rhodopsin-bleaching stimulus was assessed. […]
# In the second set of experiments, performed on cohorts (n=22), the recovery of the dark current was assessed from a 30 second light exposure estimated to bleach […] of rhodopsin. […] Following the bleaching exposure, the response to the PF was assessed at two minute intervals for 40-50 minutes. […]
# [5] = OIR rats, 6 mg/kg IP for 15 days from P7, ERG at P20-22, vs vehicle
compound,measurement,setting,value
"CC(=O)NC/C=C(C)/C=C/C=C(C)/C=C/C1=C(C)CCCC1(C)C [N-Retinylacetamide, N-Retinylacetamide (all trans)]","serious, negative alteration of the photoreceptor response","[1]; OIR rats after treatment, 6 mg/kg IP","no evidence of serious, negative alteration"
same,effect on responses originating in the inner retina,"[1]; OIR rats, 6 mg/kg IP",favorable effect
same,amplification constant of phototransduction,[1]; [5],Neither the maximal rod response nor the amplification constant of phototransduction were significantly changed
same,maximal rod response,[1]; [5],Neither the maximal rod response nor the amplification constant of phototransduction were significantly changed
same,post-receptor sensitivity (log s),"[1]; OIR rats, 6 mg/kg IP, P20-22, vs vehicle",unchanged
same,OFF response to a 400 ms stimulus,"[1]; background that suppressed the saturating a-wave by ~90%, drug-treated vs vehicle-treated OIR rats, P20-22",2 ×
same,time-constant of deactivation of phototransduction,"[1]; double-flash protocol, OIR rats, 6 mg/kg IP, P20-22, vs vehicle",significantly shorter
same,maximal scotopic b-wave amplitude,"[1]; drug-treated vs vehicle-treated OIR rats, 6 mg/kg IP, P20-22",twice as large
same,cone-driven response to 20 Hz flicker,"[1]; same background, drug-treated vs vehicle-treated OIR rats, P20-22",2 ×
same,suppression of the visual cycle,visual cycle,approximately 50%
same,"arteriolar tortuosity TA, main effect","[2]; OIR rats, 6 mg/kg IP, P20-22 to P60-62, vs vehicle",no main effect
same,appearance of vascular abnormalities,"[2]; OIR rats, VCM regimen 6 mg/kg IP",did not prevent the appearance of vascular abnormalities
same,change in arteriolar tortuosity ΔP60-P20 (vascular recovery),"[2]; TA at P60 minus TA at P20, t-test p=0.001",more than twice the normal amount
same,recovery of arteriolar tortuosity TA,"[2]; group x age interaction p=0.002, VCM vs vehicle treated rats",recovered more rapidly
same,unfavorable effects of rod function,[3]; 6 mg/kg IP,No unfavorable effects
same,rod response sensitivity (S),"[3]; 6 mg/kg IP two weeks from P7, tests P20-22, P30-32, P60-62, ANOVA vs vehicle, listed as VCM, 6 mg/kg","no statistically significant effect; also recorded: not significant, but did trend lower at every age"
same,magnitude of the rod response (Rmp3),"[3]; 6 mg/kg IP, listed as Ret-NH2, 6 mg/kg",larger
same,magnitude of the rod response (Rmp3),"[3]; 6 mg/kg IP, listed as VCM, 6 mg/kg",significantly increased
same,post-receptor sensitivity (log σ),"[3]; ERG b-wave, Naka-Rushton fit, 6 mg/kg IP, vs vehicle",not affected
same,saturated amplitude of the b-wave (Vm),"[3]; ERG b-wave, Naka-Rushton fit, 6 mg/kg IP, vs vehicle, listed as Ret-NH2, 6 mg/kg",larger
same,saturated amplitude of the b-wave (Vm),"[3]; ERG b-wave, Naka-Rushton fit, 6 mg/kg IP, vs vehicle, listed as VCM, 6 mg/kg",significantly (p<0.01) increased
same,rod-mediated retinal function (photoreceptor and post-receptor neurons),[3]; P20-22 and P30-32,"improved at the earliest test age (P20-22), and even more markedly improved at the second (P30-32)"
same,"recovery from phototransduction, latency to 50% recovery τ","[3]; 6 mg/kg IP, vs vehicle, listed as Ret-NH2, 6 mg/kg",faster recovery
same,"recovery from phototransduction, latency to 50% recovery τ","[3]; 6 mg/kg IP, vs vehicle, listed as VCM, 6 mg/kg",significantly (p<0.01) faster
same,effect on rod function,[3]; summary of ERG data,"advantageous, if transient, effect"
same,post-receptor function,[3]; summary of ERG data,transient enhancement
same,time to 50% recovery of the saturating rod photo-response after bleach (t50),[4],not significantly altered overall
